Where “and” joins values, the source holds several entries; their conditions need not be identical. Identical values can stand only once.
Assays:
Assay in all cases: KINOMEscan competition binding
Conditions in all cases: compound 0.1 µM
MAP3K6 (human) = MAP3K6 (human) (UniProt O95382)
[1] = system: PIK3CA (human), P42336 [M1043I]
PIP4K2C (human) = PIP4K2C (human) (UniProt Q8TBX8)
ADCK4 (human) = ADCK4 (human) (UniProt Q96D53)
BMPR1B (human) = BMPR1B (human) (UniProt O00238)
RPS6KA1 KD2 (human) = RPS6KA1 KD2 (human) (UniProt Q15418)
MAP3K11 (human) = MAP3K11 (human) (UniProt Q16584)
CPK1 (P.falciparum) = system: CPK1 (P.falciparum)
PIK3CB (human) = PIK3CB (human) (UniProt P42338)
[2] = system: FLT3 (human), P36888 [N841I]
[3] = biological target: JAK1 JH2 pseudokinase (human) (UniProt P23458)
CAMK4 (human) = CAMK4 (human) (UniProt Q16566)
CHUK (human) = CHUK (human) (UniProt O15111)
HIPK2 (human) = HIPK2 (human) (UniProt Q9H2X6)
ABL1 (human) = ABL1 (human) (UniProt P00519)
EPHB6 (human) = EPHB6 (human) (UniProt O15197)
CSK (human) = CSK (human) (UniProt P41240)
SIK3 (human) = SIK3 (human) (UniProt Q9Y2K2)
RPS6KA3 KD1 (human) = RPS6KA3 KD1 (human) (UniProt P51812)
CRK2 (P.falciparum) = CRK2 (P.falciparum) (UniProt P61075)
LIMK2 (human) = LIMK2 (human) (UniProt P53671)
[4] = system: EGFR (human), P00533 [G719C]
[5] = system: PIK3CA (human), P42336 [H1047L]
MARK1 (human) = MARK1 (human) (UniProt Q9P0L2)
CSNK1D (human) = CSNK1D (human) (UniProt P48730)
[6] = system: EGFR (human), P00533 [A750P; 747-749 del]
DYRK2 (human) = DYRK2 (human) (UniProt Q92630)
PHKG1 (human) = PHKG1 (human) (UniProt Q16816)
EPHA1 (human) = EPHA1 (human) (UniProt P21709)
PLK1 (human) = PLK1 (human) (UniProt P53350)
MAPK10 (human) = MAPK10 (human) (UniProt P53779)
PKN1 (human) = PKN1 (human) (UniProt Q16512)
NEK1 (human) = NEK1 (human) (UniProt Q96PY6)
CAMK2A (human) = CAMK2A (human) (UniProt Q9UQM7)
PAK4 (human) = PAK4 (human) (UniProt O96013)
PAK2 (human) = PAK2 (human) (UniProt Q13177)
FLT3 (human) = FLT3 (human) (UniProt P36888)
RIOK2 (human) = RIOK2 (human) (UniProt Q9BVS4)
STK32A (human) = STK32A (human) (UniProt Q8WU08)
STK3 (human) = STK3 (human) (UniProt Q13188)

Sequence of DYRK2 (human) (Q92630 whole entry, looked up): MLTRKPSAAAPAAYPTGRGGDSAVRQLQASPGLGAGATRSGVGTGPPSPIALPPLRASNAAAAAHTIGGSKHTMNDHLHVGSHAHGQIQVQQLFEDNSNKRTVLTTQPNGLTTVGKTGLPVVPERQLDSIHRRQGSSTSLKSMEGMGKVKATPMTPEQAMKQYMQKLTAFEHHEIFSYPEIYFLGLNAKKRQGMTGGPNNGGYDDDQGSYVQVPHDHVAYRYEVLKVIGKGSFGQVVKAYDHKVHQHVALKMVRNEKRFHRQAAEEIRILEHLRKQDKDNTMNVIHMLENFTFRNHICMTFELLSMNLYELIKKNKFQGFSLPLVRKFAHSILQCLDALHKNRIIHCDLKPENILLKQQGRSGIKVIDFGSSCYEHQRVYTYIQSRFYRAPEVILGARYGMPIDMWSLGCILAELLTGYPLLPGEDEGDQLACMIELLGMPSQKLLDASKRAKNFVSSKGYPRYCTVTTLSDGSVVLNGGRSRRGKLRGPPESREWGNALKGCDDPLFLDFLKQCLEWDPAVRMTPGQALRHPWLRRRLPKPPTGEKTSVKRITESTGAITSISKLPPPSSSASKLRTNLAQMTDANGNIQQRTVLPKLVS
Sequence of ADCK4 (human) (Q96D53 whole entry, looked up): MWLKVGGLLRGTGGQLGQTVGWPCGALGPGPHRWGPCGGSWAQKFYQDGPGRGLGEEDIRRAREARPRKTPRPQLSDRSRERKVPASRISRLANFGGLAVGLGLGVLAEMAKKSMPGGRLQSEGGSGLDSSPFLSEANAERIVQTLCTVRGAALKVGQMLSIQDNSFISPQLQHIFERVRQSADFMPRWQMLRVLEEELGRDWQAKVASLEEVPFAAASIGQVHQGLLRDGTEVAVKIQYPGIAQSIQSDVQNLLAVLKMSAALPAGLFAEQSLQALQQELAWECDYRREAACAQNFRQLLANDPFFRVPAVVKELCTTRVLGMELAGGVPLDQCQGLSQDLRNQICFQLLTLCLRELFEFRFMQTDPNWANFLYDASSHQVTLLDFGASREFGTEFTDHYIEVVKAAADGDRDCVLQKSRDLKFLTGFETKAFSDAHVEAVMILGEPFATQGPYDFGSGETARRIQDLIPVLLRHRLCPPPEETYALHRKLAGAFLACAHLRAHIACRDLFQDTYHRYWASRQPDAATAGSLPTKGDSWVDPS
Sequence of NEK1 (human) (Q96PY6 whole entry, looked up): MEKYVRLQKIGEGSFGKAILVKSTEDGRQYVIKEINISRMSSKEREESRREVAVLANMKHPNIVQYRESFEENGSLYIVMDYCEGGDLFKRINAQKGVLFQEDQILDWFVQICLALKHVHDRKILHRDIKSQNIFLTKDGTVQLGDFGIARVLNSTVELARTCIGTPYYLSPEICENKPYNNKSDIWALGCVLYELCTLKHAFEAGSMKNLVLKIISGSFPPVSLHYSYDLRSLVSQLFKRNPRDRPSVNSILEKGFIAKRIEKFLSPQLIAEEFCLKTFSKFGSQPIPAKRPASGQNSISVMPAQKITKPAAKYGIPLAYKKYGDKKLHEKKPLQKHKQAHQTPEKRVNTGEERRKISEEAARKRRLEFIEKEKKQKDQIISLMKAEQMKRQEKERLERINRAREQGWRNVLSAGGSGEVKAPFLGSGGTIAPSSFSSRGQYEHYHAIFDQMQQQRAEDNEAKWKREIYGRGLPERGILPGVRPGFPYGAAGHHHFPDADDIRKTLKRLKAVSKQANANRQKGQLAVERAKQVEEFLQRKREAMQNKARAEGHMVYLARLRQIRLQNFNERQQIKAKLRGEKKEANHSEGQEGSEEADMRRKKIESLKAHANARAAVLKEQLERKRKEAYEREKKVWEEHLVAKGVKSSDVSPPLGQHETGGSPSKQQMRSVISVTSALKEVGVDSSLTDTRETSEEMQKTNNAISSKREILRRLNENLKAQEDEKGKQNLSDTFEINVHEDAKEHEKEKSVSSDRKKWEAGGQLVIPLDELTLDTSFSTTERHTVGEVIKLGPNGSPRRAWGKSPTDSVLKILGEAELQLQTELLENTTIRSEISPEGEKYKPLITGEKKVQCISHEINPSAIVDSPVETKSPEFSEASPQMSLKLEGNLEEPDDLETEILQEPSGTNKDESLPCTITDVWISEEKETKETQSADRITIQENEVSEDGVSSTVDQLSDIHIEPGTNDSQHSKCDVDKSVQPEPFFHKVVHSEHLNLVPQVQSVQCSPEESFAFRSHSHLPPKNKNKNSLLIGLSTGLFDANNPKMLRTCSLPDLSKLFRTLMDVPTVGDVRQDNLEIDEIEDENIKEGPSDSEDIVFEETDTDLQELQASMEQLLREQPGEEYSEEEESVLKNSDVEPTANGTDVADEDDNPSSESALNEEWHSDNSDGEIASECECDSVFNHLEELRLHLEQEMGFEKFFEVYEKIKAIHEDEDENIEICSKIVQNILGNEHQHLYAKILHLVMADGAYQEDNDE
Sequence of CSK (human) (P41240 whole entry, looked up): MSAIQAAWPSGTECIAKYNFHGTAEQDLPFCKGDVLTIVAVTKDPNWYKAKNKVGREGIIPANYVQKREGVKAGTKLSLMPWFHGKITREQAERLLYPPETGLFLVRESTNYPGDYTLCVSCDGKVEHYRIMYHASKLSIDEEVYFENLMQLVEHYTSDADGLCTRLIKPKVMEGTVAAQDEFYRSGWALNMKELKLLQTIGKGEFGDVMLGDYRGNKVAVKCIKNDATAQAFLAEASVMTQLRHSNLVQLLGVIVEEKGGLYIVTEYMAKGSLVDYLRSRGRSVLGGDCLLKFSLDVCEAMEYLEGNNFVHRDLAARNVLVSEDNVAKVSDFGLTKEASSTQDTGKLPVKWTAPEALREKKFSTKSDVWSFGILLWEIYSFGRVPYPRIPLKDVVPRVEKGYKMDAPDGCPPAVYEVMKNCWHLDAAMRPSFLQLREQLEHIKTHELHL
Sequence of PHKG1 (human) (Q16816 whole entry, looked up): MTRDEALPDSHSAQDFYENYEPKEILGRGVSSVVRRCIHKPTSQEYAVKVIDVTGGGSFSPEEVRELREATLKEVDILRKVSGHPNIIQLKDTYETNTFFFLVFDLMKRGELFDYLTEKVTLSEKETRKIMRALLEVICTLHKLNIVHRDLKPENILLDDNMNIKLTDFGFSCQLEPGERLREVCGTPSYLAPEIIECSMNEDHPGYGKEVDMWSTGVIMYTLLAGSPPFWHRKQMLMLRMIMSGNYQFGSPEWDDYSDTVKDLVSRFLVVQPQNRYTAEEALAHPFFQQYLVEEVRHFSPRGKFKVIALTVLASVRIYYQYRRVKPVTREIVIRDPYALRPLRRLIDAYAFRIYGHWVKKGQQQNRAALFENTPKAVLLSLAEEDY
Sequence of PLK1 (human) (P53350 whole entry, looked up): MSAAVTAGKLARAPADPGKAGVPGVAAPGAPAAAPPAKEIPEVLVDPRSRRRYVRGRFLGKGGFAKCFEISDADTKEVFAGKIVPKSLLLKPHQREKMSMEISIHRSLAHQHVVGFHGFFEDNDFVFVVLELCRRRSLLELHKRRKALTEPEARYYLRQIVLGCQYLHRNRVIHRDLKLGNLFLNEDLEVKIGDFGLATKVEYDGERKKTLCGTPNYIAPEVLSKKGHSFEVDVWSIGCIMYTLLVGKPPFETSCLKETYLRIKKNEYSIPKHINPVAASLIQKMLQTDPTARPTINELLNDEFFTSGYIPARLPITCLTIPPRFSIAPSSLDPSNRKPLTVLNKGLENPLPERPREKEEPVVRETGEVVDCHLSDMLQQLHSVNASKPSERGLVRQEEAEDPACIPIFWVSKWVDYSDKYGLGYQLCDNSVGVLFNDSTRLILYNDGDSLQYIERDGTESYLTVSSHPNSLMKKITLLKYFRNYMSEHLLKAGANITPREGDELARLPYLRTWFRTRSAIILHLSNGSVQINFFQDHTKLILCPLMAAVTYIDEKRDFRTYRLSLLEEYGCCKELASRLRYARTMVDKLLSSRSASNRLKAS
Sequence of BMPR1B (human) (O00238 whole entry, looked up): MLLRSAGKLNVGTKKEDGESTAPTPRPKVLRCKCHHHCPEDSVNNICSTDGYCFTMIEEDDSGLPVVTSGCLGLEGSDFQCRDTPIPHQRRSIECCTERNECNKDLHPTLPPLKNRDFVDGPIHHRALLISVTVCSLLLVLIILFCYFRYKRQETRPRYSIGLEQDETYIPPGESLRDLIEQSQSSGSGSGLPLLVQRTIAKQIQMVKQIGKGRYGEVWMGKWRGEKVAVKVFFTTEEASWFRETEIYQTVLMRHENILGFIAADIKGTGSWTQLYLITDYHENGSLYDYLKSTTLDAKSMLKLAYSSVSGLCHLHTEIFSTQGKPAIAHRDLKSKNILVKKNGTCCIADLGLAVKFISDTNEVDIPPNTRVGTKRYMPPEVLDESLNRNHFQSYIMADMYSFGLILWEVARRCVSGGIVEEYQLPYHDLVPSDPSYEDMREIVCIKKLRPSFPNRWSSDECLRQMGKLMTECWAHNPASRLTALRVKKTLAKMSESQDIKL
Sequence of STK32A (human) (Q8WU08 whole entry, looked up): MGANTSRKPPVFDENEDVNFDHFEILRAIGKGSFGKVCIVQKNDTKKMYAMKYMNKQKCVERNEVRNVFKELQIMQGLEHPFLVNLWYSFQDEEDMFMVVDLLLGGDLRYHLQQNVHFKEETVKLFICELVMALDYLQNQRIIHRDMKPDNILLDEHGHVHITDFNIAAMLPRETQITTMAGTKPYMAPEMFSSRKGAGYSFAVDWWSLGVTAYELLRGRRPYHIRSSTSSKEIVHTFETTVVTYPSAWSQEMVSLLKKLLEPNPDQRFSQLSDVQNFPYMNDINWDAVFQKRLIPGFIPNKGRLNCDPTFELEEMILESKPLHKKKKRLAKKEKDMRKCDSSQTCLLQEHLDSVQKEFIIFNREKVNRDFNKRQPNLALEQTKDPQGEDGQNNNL

Work on `CCc1ccc(C(=O)Nc2cc(CN3CCN(C)CC3)cc(C(F)(F)F)c2)cc1C#Cc1cnc2ccnn2c1` yielded a kinase still bound, per cent of control (MAP3K6 (human)) of 100%, a kinase still bound, per cent of control [1] of 100% and a kinase still bound, per cent of control (PIP4K2C (human)) of 100%. For the same compound, the kinase still bound, per cent of control (ADCK4 (human)) was 100%, the kinase still bound, per cent of control (BMPR1B (human)) was 100% and the kinase still bound, per cent of control (RPS6KA1 KD2 (human)) was 100%. The kinase still bound, per cent of control (MAP3K11 (human)) was 83%, the kinase still bound, per cent of control (CPK1 (P.falciparum)) was 100% and the kinase still bound, per cent of control (PIK3CB (human)) was 100%. The kinase still bound, per cent of control [2] was 100%, the kinase still bound, per cent of control [3] was 100% and the kinase still bound, per cent of control (CAMK4 (human)) was 100%. The kinase still bound, per cent of control (CHUK (human)) was 100%, the kinase still bound, per cent of control (HIPK2 (human)) was 100% and the kinase still bound, per cent of control (ABL1 (human)) was 100%. It also gave a kinase still bound, per cent of control (EPHB6 (human)) of 100%, a kinase still bound, per cent of control (CSK (human)) of 92% and a kinase still bound, per cent of control (SIK3 (human)) of 100%. For the same compound, the kinase still bound, per cent of control (RPS6KA3 KD1 (human)) was 100%, the kinase still bound, per cent of control (CRK2 (P.falciparum)) was 100% and the kinase still bound, per cent of control (LIMK2 (human)) was 100%. For the same compound, the kinase still bound, per cent of control [4] was 100%, the kinase still bound, per cent of control [5] was 100% and the kinase still bound, per cent of control (MARK1 (human)) was 74%. It also gave a kinase still bound, per cent of control (CSNK1D (human)) of 77%, a kinase still bound, per cent of control [6] of 90% and a kinase still bound, per cent of control (DYRK2 (human)) of 86%. The kinase still bound, per cent of control (PHKG1 (human)) was 85%, the kinase still bound, per cent of control (EPHA1 (human)) was 86% and the kinase still bound, per cent of control (PLK1 (human)) was 80%. The kinase still bound, per cent of control (MAPK10 (human)) was 100%, the kinase still bound, per cent of control (PKN1 (human)) was 100% and the kinase still bound, per cent of control (NEK1 (human)) was 93%. The kinase still bound, per cent of control (CAMK2A (human)) was 92%, the kinase still bound, per cent of control (PAK4 (human)) was 80% and the kinase still bound, per cent of control (PAK2 (human)) was 76%. For the same compound, the kinase still bound, per cent of control (FLT3 (human)) was 78% and 100%, the kinase still bound, per cent of control (RIOK2 (human)) was 100% and the kinase still bound, per cent of control (STK32A (human)) was 69%. For the same compound, the kinase still bound, per cent of control (STK3 (human)) was 100%.
